Respiratory rate data for two compounds are collected here from US20030130203A1, “Medicament for combating respiratory depression” (priority 2000, published 2003).

In the data set the test system is awake male Sprague Dawley rats. In words: Measurement of respiratory rate on the awake rat. Type of data set: in vivo. The settings on record: i.v., measured immediately and up to 15 min. Here is the method:
Measurement of Respiratory Rate on the Awake Rat
To study the respiratory rate, awake male Sprague Dawley rats (Janvier, France) weighing 190 to 315 g were immobilized in Plexiglas tubes. For intravenous administration of the medicament solutions, the rats were each provided with a catheter in the caudal vein. The respiratory rate of the rats was measured via a water-filled balloon catheter located laterally between the rat and the Plexiglas tube. The balloon catheter was connected to a pressure sensor and a high-speed chart recorder (Gould, Dietzenbach).
After an equilibration period of 30 minutes, a baseline value for the respiratory rate was determined. The appropriate active ingredient solution was then administered intravenously and the respiratory rate was measured immediately and after 1, 2, 5, 10 and 15 minutes. Each rat received a single administration per day.

As to `CN1CC[C@]23c4c5ccc(O)c4O[C@H]2[C@@H](O)C=C[C@H]3[C@H]1C5` [Comparative Example 1, morphine], the respiratory rate entry (10 mg/kg morphine only in 0.9% saline) is recorded as “marked decrease in respiratory rate”.
Turning to `C[C@H]1SC[C@@H](C(=O)N[C@H](Cc2c[nH]cn2)C(=O)N2CCC[C@H]2C(N)=O)NC1=O` [Example 1, montirelin], under “0.215 mg/kg montirelin together with 10 mg/kg morphine in 0.9% saline”, the respiratory rate result is “no decrease in respiratory rate”.
